From patent US8822413B2, “Bifunctional hormone having alpha-MSH activity and natriuretic peptide activity and uses thereof” (Theratechnologies Inc., priority 2007, dated 2014)
pEC50: −log10 of the molar value. Bridge positions count the residues as written; N and C are the ends. Square brackets hold non-standard residues; d marks the D form. Peptide text beside a SMILES is read from it. Nle = CCCC[C@H](N)C(=O)O

Molecular target: T1, ANP receptor (Sus scrofa, UniProt F1SFW3)
T1 construct: ANP receptor-expressing LLC-PK1 cells; endogenous in cells; host or cells: LLC-PK1 cells
T1 sequence (F1SFW3 29-1057): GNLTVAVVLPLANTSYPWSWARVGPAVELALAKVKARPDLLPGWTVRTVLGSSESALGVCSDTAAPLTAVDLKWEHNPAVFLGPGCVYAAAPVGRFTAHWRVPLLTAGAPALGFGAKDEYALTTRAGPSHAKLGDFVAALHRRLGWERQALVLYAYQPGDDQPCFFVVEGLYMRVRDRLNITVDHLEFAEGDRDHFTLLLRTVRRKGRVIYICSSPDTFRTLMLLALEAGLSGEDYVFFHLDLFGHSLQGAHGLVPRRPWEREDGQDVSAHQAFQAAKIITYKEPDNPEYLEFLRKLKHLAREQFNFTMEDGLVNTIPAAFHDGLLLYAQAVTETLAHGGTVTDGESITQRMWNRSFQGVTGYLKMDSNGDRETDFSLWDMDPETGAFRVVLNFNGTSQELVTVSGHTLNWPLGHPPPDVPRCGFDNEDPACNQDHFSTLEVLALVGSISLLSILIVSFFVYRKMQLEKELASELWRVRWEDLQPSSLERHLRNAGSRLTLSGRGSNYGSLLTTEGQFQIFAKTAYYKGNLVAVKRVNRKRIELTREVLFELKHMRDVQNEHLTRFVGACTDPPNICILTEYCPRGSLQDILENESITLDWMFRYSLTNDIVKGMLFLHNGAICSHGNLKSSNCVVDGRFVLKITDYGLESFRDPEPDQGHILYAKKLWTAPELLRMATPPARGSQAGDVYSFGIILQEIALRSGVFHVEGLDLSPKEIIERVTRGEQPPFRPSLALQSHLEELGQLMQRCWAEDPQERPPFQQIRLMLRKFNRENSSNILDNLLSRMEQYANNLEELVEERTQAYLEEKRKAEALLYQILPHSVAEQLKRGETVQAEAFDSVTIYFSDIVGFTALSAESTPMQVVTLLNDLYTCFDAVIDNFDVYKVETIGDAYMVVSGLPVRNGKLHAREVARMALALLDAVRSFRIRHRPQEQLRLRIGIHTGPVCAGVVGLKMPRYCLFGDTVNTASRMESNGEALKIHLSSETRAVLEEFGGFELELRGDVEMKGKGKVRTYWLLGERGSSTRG
Experiment: cGMP production in ANP receptor-expressing LLC-PK1 cells
Type: cell-based
Conditions: 30 min stimulation, 10^-6M through 10^-12M
Description: The bifunctional hormone was tested on ANP receptor-expressing LLC-PK1 cells and on MCR1 receptor-expressing B16-F1 cells. Both cell types were cultured 24 hours before the stimulation, in 96-well plates, at a concentration of 1.0×10^5 cells/ml. Before stimulation, cells were starved 2 hours in DPBS only and incubated 10 min in assay buffer (DPBS containing 20 mM HEPES, 0.1% BSA and 500 μM IBMX). The dose response curve of the bifunctional hormone was done for 30 minutes with concentrations of 10^−6M through 10^−12M. Supernatant was collected and cAMP (B16-F1) or cGMP (LLC-PK1) was measured with a radiolabeled kit from GE Healthcare Company.

pEC50 | Compound
5.84 | CCCC[C@@H]1NC(=O)[C@H](CCCNC(=N)N)NC(=O)CNC(=O)CNC(=O)[C@H](Cc2ccccc2)NC(=O)[C@H](Cc2c[nH]cn2)NC(=O)[C@@H](NC(=O)[C@@H](N)CCCC)CCC(=O)NCCCC[C@@H](C(=O)N[C@@H](Cc2ccc(O)cc2)C(=O)N[C@@H](CCCNC(=N)N)C(=O)N[C@@H](Cc2c[nH]cn2)C(=O)N[C@H](Cc2ccccc2)C(=O)N[C@@H](CCCNC(=N)N)C(=O)N[C@@H](Cc2c[nH]c3ccccc23)C(N)=O)NC(=O)[C@H](CO)NC(=O)[C@H]([C@@H](C)CC)NC(=O)[C@H](CCCNC(=N)N)NC(=O)[C@H](CC(=O)O)NC1=O [SEQ ID NO: 29, Nle-[E-H-F-G-G-R-Nle-D-R-I-S-K]-Y-R-H-f-R-W-NH2] (H-[Nle]EHFGGR[Nle]DRISKYRH[dF]RW-NH2; lactam 2-13)
5.15 | CC[C@H](C)[C@@H]1NC(=O)[C@H](CCCNC(=N)N)NC(=O)[C@H](CC(=O)O)NC(=O)[C@H](CCSC)NC(=O)[C@H](CCCNC(=N)N)NC(=O)CNC(=O)CNC(=O)[C@H](Cc2ccccc2)NC(=O)[C@@H](NC(=O)[C@H](CO)NC(=O)[C@H](CO)NC(=O)[C@H](CCCNC(=N)N)NC(=O)[C@H](CCCNC(=N)N)NC(=O)[C@H](CC(C)C)NC(=O)[C@@H](N)CO)CSSC[C@@H](C(=O)N[C@@H](CC(N)=O)C(=O)N[C@@H](CO)C(=O)N[C@@H](Cc2ccccc2)C(=O)N[C@@H](CCCNC(=N)N)C(=O)N[C@@H](Cc2ccc(O)cc2)C(=O)N[C@@H](Cc2c[nH]cn2)C(=O)N[C@H](Cc2ccccc2)C(=O)N[C@@H](CCCNC(=N)N)C(=O)N[C@@H](Cc2c[nH]c3ccccc23)C(N)=O)NC(=O)CNC(=O)[C@H](CC(C)C)NC(=O)CNC(=O)[C@H](CO)NC(=O)[C@H](CCC(N)=O)NC(=O)[C@H](C)NC(=O)CNC1=O [SEQ ID NO: 40, S-L-R-R-S-S-[C-F-G-G-R-M-D-R-I-G-A-Q-S-G-L-G-C]-N-S-F-R-Y-H-f-R-W-NH2]

Same assay, conditions: 30 min stimulation, 10^-6M through 10^-12M, NR = No response detected

Compound | pEC50
CC[C@H](C)[C@@H]1NC(=O)[C@H](CCCNC(=N)N)NC(=O)[C@H](CC(=O)O)NC(=O)[C@H](CCSC)NC(=O)[C@H](CCCNC(=N)N)NC(=O)CNC(=O)CNC(=O)[C@H](Cc2ccccc2)NC(=O)[C@H](Cc2c[nH]cn2)NC(=O)[C@@H](NC(=O)[C@H](CCSC)NC(=O)[C@@H]2CCCN2C(=O)[C@H](CCCCN)NC(=O)CNC(=O)[C@H](Cc2c[nH]c3ccccc23)NC(=O)[C@H](CCCNC(=N)N)NC(=O)[C@@H](Cc2ccccc2)NC(=O)[C@H](Cc2c[nH]cn2)NC(C)=O)CSSC[C@@H](C(=O)N[C@@H](Cc2ccc(O)cc2)C(=O)N[C@@H](CCCNC(=N)N)C(N)=O)NC(=O)[C@H](CO)NC1=O [SEQ ID NO: 31, Ac-H-f-R-W-G-K-P-M-[C-H-F-G-G-R-M-D-R-I-S-C]-Y-R-NH2] (Ac-H[dF]RWGKPMCHFGGRMDRISCYR-NH2; disulfide 9-20) | 7.13
CCCC[C@@H]1NC(=O)[C@H](CCCNC(=N)N)NC(=O)CNC(=O)CNC(=O)[C@H](Cc2ccccc2)NC(=O)[C@H](Cc2c[nH]cn2)NC(=O)[C@@H](NC(=O)[C@H](CCCC)NC(=O)[C@@H]2CCCN2C(=O)[C@H](CCCCN)NC(=O)CNC(=O)[C@H](Cc2c[nH]c3ccccc23)NC(=O)[C@H](CCCNC(=N)N)NC(=O)[C@@H](Cc2ccccc2)NC(=O)[C@H](Cc2c[nH]cn2)NC(C)=O)CSSC[C@@H](C(=O)N[C@@H](Cc2ccc(O)cc2)C(=O)N[C@@H](CCCNC(=N)N)C(N)=O)NC(=O)[C@H](CO)NC(=O)[C@H]([C@@H](C)CC)NC(=O)[C@H](CCCNC(=N)N)NC(=O)[C@H](CC(=O)O)NC1=O [SEQ ID NO: 34, Ac-H-f-R-W-G-K-P-Nle-[C-H-F-G-G-R-Nle-D-R-I-S-C]-Y-R-NH2] (Ac-H[dF]RWGKP[Nle]CHFGGR[Nle]DRISCYR-NH2; disulfide 9-20) | 6.88
CCCC[C@@H]1NC(=O)[C@H](CCCNC(=N)N)NC(=O)CNC(=O)CNC(=O)[C@H](Cc2ccccc2)NC(=O)[C@@H](NC(=O)[C@H](CCCC)NC(=O)[C@@H]2CCCN2C(=O)[C@H](CCCCN)NC(=O)CNC(=O)[C@H](Cc2c[nH]c3ccccc23)NC(=O)[C@H](CCCNC(=N)N)NC(=O)[C@@H](Cc2ccccc2)NC(=O)[C@H](Cc2c[nH]cn2)NC(C)=O)CSSC[C@@H](C(=O)N[C@@H](CC(N)=O)C(=O)N[C@@H](CO)C(=O)N[C@@H](Cc2ccccc2)C(=O)N[C@@H](CCCNC(=N)N)C(=O)N[C@@H](Cc2ccc(O)cc2)C(N)=O)NC(=O)CNC(=O)[C@H](CC(C)C)NC(=O)CNC(=O)[C@H](CO)NC(=O)[C@H](CCC(N)=O)NC(=O)[C@H](C)NC(=O)CNC(=O)[C@H]([C@@H](C)CC)NC(=O)[C@H](CCCNC(=N)N)NC(=O)[C@H](CC(=O)O)NC1=O [SEQ ID NO: 35, Ac-H-f-R-W-G-K-P-Nle-[C-F-G-G-R-Nle-D-R-I-G-A-Q-S-G-L-G-C]-N-S-F-R-Y-NH2] (Ac-H[dF]RWGKP[Nle]CFGGR[Nle]DRIGAQSGLGCNSFRY-NH2; disulfide 9-25) | 6.66

Further lines, results first:

pEC50 | Compound
7.48 | CC[C@H](C)[C@@H]1NC(=O)[C@H](CCCNC(=N)N)NC(=O)[C@H](CC(=O)O)NC(=O)[C@H](CCSC)NC(=O)[C@H](CCCNC(=N)N)NC(=O)CNC(=O)CNC(=O)[C@H](Cc2ccccc2)NC(=O)[C@@H](NC(=O)[C@H](CO)NC(=O)[C@H](CO)NC(=O)[C@H](CCCNC(=N)N)NC(=O)[C@H](CCCNC(=N)N)NC(=O)CNC(=O)[C@H](Cc2c[nH]c3ccccc23)NC(=O)[C@H](CCCNC(=N)N)NC(=O)[C@H](Cc2ccccc2)NC(=O)[C@H](Cc2c[nH]cn2)NC(=O)[C@H](CCC(=O)O)NC(=O)[C@@H](N)CCSC)CSSC[C@@H](C(=O)N[C@@H](CC(N)=O)C(=O)N[C@@H](CO)C(=O)N[C@@H](Cc2ccccc2)C(=O)N[C@@H](CCCNC(=N)N)C(=O)N[C@@H](Cc2ccc(O)cc2)C(N)=O)NC(=O)CNC(=O)[C@H](CC(C)C)NC(=O)CNC(=O)[C@H](CO)NC(=O)[C@H](CCC(N)=O)NC(=O)[C@H](C)NC(=O)CNC1=O [SEQ ID NO: 36, M-E-H-F-R-W-G-R-R-S-S-[C-F-G-G-R-M-D-R-I-G-A-Q-S-G-L-G-C]-N-S-F-R-Y-NH2] (H-MEHFRWGRRSSCFGGRMDRIGAQSGLGCNSFRY-NH2; disulfide 12-28)
8.16 | CC[C@H](C)[C@@H]1NC(=O)[C@H](CCCNC(=N)N)NC(=O)[C@H](CC(=O)O)NC(=O)[C@H](CCSC)NC(=O)[C@H](CCCNC(=N)N)NC(=O)CNC(=O)CNC(=O)[C@H](Cc2ccccc2)NC(=O)[C@@H](NC(=O)[C@H](CO)NC(=O)[C@H](CO)NC(=O)[C@H](CCCNC(=N)N)NC(=O)[C@H](CCCNC(=N)N)NC(=O)CNC(=O)[C@H](Cc2c[nH]c3ccccc23)NC(=O)[C@H](CCCNC(=N)N)NC(=O)[C@H](Cc2ccccc2)NC(=O)[C@H](Cc2c[nH]cn2)NC(C)=O)CSSC[C@@H](C(=O)N[C@@H](CC(N)=O)C(=O)N[C@@H](CO)C(=O)N[C@@H](Cc2ccccc2)C(=O)N[C@@H](CCCNC(=N)N)C(=O)N[C@@H](Cc2ccc(O)cc2)C(N)=O)NC(=O)CNC(=O)[C@H](CC(C)C)NC(=O)CNC(=O)[C@H](CO)NC(=O)[C@H](CCC(N)=O)NC(=O)[C@H](C)NC(=O)CNC1=O [SEQ ID NO: 38, Ac-H-F-R-W-G-R-R-S-S-[C-F-G-G-R-M-D-R-I-G-A-Q-S-G-L-G-C]-N-S-F-R-Y-NH2] (Ac-HFRWGRRSSCFGGRMDRIGAQSGLGCNSFRY-NH2; disulfide 10-26)
7.28 | CC[C@H](C)[C@@H]1NC(=O)[C@H](CCCNC(=N)N)NC(=O)[C@H](CC(=O)O)NC(=O)[C@H](CCSC)NC(=O)[C@H](CCCNC(=N)N)NC(=O)CNC(=O)CNC(=O)[C@H](Cc2ccccc2)NC(=O)[C@@H](NC(=O)[C@H](CO)NC(=O)[C@H](CO)NC(=O)[C@H](CCCNC(=N)N)NC(=O)[C@H](CCCNC(=N)N)NC(=O)CNC(=O)[C@H](Cc2c[nH]c3ccccc23)NC(=O)[C@H](CCCNC(=N)N)NC(=O)[C@@H](Cc2ccccc2)NC(=O)[C@H](Cc2c[nH]cn2)NC(C)=O)CSSC[C@@H](C(=O)N[C@@H](CC(N)=O)C(=O)N[C@@H](CO)C(=O)N[C@@H](Cc2ccccc2)C(=O)N[C@@H](CCCNC(=N)N)C(=O)N[C@@H](Cc2ccc(O)cc2)C(N)=O)NC(=O)CNC(=O)[C@H](CC(C)C)NC(=O)CNC(=O)[C@H](CO)NC(=O)[C@H](CCC(N)=O)NC(=O)[C@H](C)NC(=O)CNC1=O [SEQ ID NO: 39, Ac-H-f-R-W-G-R-R-S-S-[C-F-G-G-R-M-D-R-I-G-A-Q-S-G-L-G-C]-N-S-F-R-Y-NH2] (Ac-H[dF]RWGRRSSCFGGRMDRIGAQSGLGCNSFRY-NH2; disulfide 10-26)
